In patent publication US8546582B2, “Sulfenamide, vulcanization accelerator containing the sulfenamide for rubber, and process for producing the vulcanization accelerator” (Ouchi Shinko Chemical Industrial Co., Ltd., priority 2007, dated 2013):
Values joined by “and” are separate entries in the source; they are usually repeats but may differ in a detail not shown here. Identical values can stand only once.

Experiments:
carp = assay: test on the degree of bioconcentration of a chemical substance in the body of fish and shellfish; format: in vivo; conditions: for Concentration ratio (times), average / Concentration ratio (times): carp; for Concentration ratio (times): single values
Protocol: For BEBS synthesized in Example 2, a test on the degree of bioconcentration of a chemical substance in the body of fish and shellfish was carried out according to “Shinki Kagaku Busshitsu To Nikakaru Shiken No Hoho Nitsuite (Circular on Test Methods of New Chemical Substances)” (Yakushokuhatsu No. 1121002 dated Nov. 21, 2003, Seikyoku No. 2 dated on Nov. 13, 2003, Kanhokihatsu No. 03121002).
Test bioconcentration: First bioconcentration area 1 μg/L • Second bioconcentration area 0.1 μg/L
Exposure duration: 22 days
Exposure method: Continuous flow-through
Analytical method: High-performance liquid chromatography

[1] = 1-octanol/water distribution coefficient by high-performance liquid chromatography (JIS Z7260-117); format: physicochemical; conditions: HPLC
Protocol: For N-methyl-N-t-butylbenzothiazole-2-sulfenamide (BMBS) synthesized in Example 1, N-ethyl-N-t-butylbenzothiazole-2-sulfenamide (BEBS) synthesized in Example 2, N-n-propyl-N-t-butylbenzothiazole-2-sulfenamide (BPBS) synthesized in Example 3, N-n-butyl-N-t-butylbenzothiazole-2-sulfenamide (BBBS) synthesized in Example 4, and N,N-dicyclohexylbenzothiazole-2-sulfenamide (DCBS) which is a conventional compound, the 1-octanol/water distribution coefficient was measured by high-performance liquid chromatography according to JIS Z7260-117.

fish and shellfish = conditions: Official Bulletin of Economy, Trade and Industry, Dec. 22, 2005; cited from earlier work
microorganisms = conditions: safety checks of existing chemical substances; cited from earlier work
[2] = stated in TRGS552 (non-patent document 3); cited from earlier work
[3] = first concentration area 1 μg/L, after 14 days
[4] = first concentration area 1 μg/L, after 22 days
[5] = second concentration area 0.1 μg/L, after 14 days
[6] = second concentration area 0.1 μg/L, after 22 days

CCCCN(Sc1nc2ccccc2s1)C(C)(C)C [BBBS, N-n-butyl-N-t-butylbenzothiazole-2-sulfenamide]
melting point: 55 to 56 °C

CCN(Sc1nc2ccccc2s1)C(C)(C)C [BEBS, N-ethyl-N-t-butylbenzothiazole-2-sulfenamide]
Concentration ratio (times), average (carp; [3]): 180 times | Concentration ratio (times) (carp; [3]): 120 times and 240 times | Concentration ratio (times), average (carp; [4]): 170 times | Concentration ratio (times) (carp; [4]): 180 times and 170 times | Concentration ratio (times), average (carp; [5]): 180 times | Concentration ratio (times) (carp; [5]): 180 times and 190 times | Concentration ratio (times), average (carp; [6]): 160 times | Concentration ratio (times) (carp; [6]): 180 times and 130 times | bioaccumulation or bioconcentration (carp; preliminary test, in 22 days): 180 times

CN(Sc1nc2ccccc2s1)C(C)(C)C [BMBS, N-methyl-N-t-butyl benzothiazole-2-sulfenamide]
logPow [1]: 4.5

CCCN(Sc1nc2ccccc2s1)C(C)(C)C [BPBS, N-n-propyl-N-t-butylbenzothiazole-2-sulfenamide]
melting point: 55 to 56 °C

c1ccc2sc(SN(C3CCCCC3)C3CCCCC3)nc2c1 [DCBS, N,N-dicyclohexylbenzothiazole-2-sulfenamide]
concentration ratio (BCFSS) (fish and shellfish): 6000 times | chromatographic logP ([1]; read-out: logPow): 7.4 | degradability (microorganisms): hardly degradable

CCN(N=O)C(C)(C)C [N-nitroso-N-ethyl-t-butylamine]
carcinogenicity [2]: not carcinogenic

CN(N=O)C(C)(C)C [N-nitroso-N-methyl-t-butylamine]
carcinogenicity [2]: not carcinogenic

CCCCN(N=O)C(C)(C)C [N-nitroso-N-n-butyl-t-butylamine]
carcinogenicity [2]: not carcinogenic

O=NN(C1CCCCC1)C1CCCCC1 [N-nitrosodicyclohexylamine]
carcinogenicity [2]: not carcinogenic
